Earlier results on one molecule are cited in US5223503A, “6-substituted pyrido[2,3-d]pyrimidines as antineoplastic agents” (Eli Lilly and Company, priority 1992, dated 1993).

The data set deals with solid tumors. Conditions: Proc. Amer. Assoc. Cancer Res., 31, 1053 (1990).

Turning to `Nc1nc2c(c(=O)[nH]1)CC(CCc1ccc(C(=O)N[C@@H](CCC(=O)O)C(=O)O)cc1)CN2` (stereo partly shown) [lometrexol, 5,10-dideazatetrahydrofolic acid], the “clinical efficacy against solid tumors” value is reported as “clinical efficacy against solid tumors”.
